US20200346048A1, “METHOD AND KIT FOR HOME CONTROLLED OVARIAN STIMULATION FOR IN VITRO FERTILIZATION” (priority 2019, published 2020)
Where “and” joins values, the source holds several entries; their conditions need not be identical. Identical values can stand only once. Square brackets hold non-standard residues; d marks the D form. Peptide text beside a SMILES is read from it. d(hArg(Et2)) = CCN=C(NCC)NCCCC[C@@H](N)C(=O)O; hArg(Et2) = CCN=C(NCC)NCCCC[C@H](N)C(=O)O; dPhe(4-Cl) = N[C@H](Cc1ccc(Cl)cc1)C(=O)O; d2Nal = N[C@H](Cc1ccc2ccccc2c1)C(=O)O; d3Pal = N[C@H](Cc1cccnc1)C(=O)O

What was measured:
[1] = system: Luteinizing hormone (LH) blood level; test: GnRH antagonist protocol with ganirelix acetate injections (Example 1): LH blood level before and after medication; format: in vivo, female patients
Experimental: Five female patients were treated with a GnRH antagonist protocol requiring injections of medications. […]
Three patients, numbered 3 to 5, were injected with 75, 150 and 225 Units of FSH, respectively, on days 4 to 12 and one third a syringe of 150 mcg/0.5 mL of ganirelix acetate on days 11 to 13. Patient no. 3 received 50 mg of clomiphene citrate on days 4 to 12, and 2.5 mg of letrozole on days 4 to 8. Patient no. 4 received 100 mg of clomiphene citrate and 2.5 mg of letrozole on days 4 to 8, and 50 mg of clomiphene citrate on days 9 to 11. Patient no. 5 received no clomiphene citrate or letrozole. Luteinizing hormone (LH) blood level was 12.0, 18.0 and 14.6 mIU/mL, respectively, on day 10 and dropped to 4.9, 16.0 and 14.1 mIU/mL, respectively, on day 12. […]

[2] = system: Luteinizing hormone (LH) blood level; test: Home controlled ovarian hyperstimulation method with vaginal elagolix (Example 2): LH blood level before and after medication; format: in vivo, female patients; conditions: 50 mg elagolix tablet as vaginal suppository on days 9 and 11
Experimental: On day 9 of the menstrual cycle, the patient is directed to orally take 50 to 150 mg, preferably 100 mg, (one, two, or three 50 mg oral tablets) of clomiphene citrate and to either insert vaginally or take orally, depending on the patient's preference, a gonadotropin-releasing hormone (GnRH) antagonist such as elagolix (marketed as ORILISSA®), instead of the expensive injections of ganirelix acetate (GANIRELEX®) or cetrorelix acetate (marketed as CETROTIDE®) used routinely in conventional practices. A dose of 25 mg (⅛^th of a pill) up to 200 mg of elagolix (1 full pill), preferably 25 mg, will be used, with the dose being the same whether inserted vaginally or taken orally. Elagolix is a GnRH antagonist that is conventionally used in the treatment of pain associated with endometriosis in women, not for the treatment of infertility. By blocking the GnRH receptor, elagolix suppresses LH release by the pituitary gland and thus prevents LH surge. Ultimately, elagolix suppresses gonadal steroid production, thereby reducing circulating levels of sex hormones such as progesterone, estradiol, and testosterone. Elagolix is generally an oral medication (oral tablet), however in the present method, elagolix is a tablet taken mainly as a vaginal suppository, but may be taken orally based on the patient's preference. […]

SMILES: CCN=C(NCC)NCCCC[C@H](NC(=O)[C@H](CC(C)C)NC(=O)[C@@H](CCCCNC(=NCC)NCC)NC(=O)[C@H](Cc1ccc(O)cc1)NC(=O)[C@H](CO)NC(=O)[C@@H](Cc1cccnc1)NC(=O)[C@@H](Cc1ccc(Cl)cc1)NC(=O)[C@@H](Cc1ccc2ccccc2c1)NC(C)=O)C(=O)N1CCC[C@H]1C(=O)N[C@H](C)C(N)=O [Ganirelex, ganirelix acetate] (Ac-[d2Nal][dPhe(4-Cl)][d3Pal]SY[d(hArg(Et2))]L[hArg(Et2)]P[dA]-NH2)
- LH blood hormone level (mIU/mL) AFTER medication intake ([1]; Example 1, one line per patient (patients 1-5), after ganirelix injections, listed as Conventional Ganielex/Cetrotide Injectables): 2.0 mIU/mL and 6.3 mIU/mL and 4.9 mIU/mL and 16.0 mIU/mL and 14.1 mIU/mL
- LH blood hormone level (mIU/mL) BEFORE medication intake ([1]; Example 1, one line per patient (patients 1-5), baseline before ganirelix injections, with FSH and, except patient 5, clomiphene citrate/letrozole, listed as Conventional Ganielex/Cetrotide Injectables): 4.3 mIU/mL and 12.0 mIU/mL (2×) and 18.0 mIU/mL and 14.6 mIU/mL
- % Drop in blood LH hormone level ([1]; Example 1, one line per patient (patients 1-5), before vs after medication intake, listed as Conventional Ganielex/Cetrotide Injectables): 3.4%
- Luteinizing hormone (LH) blood level on day 12 ([1]; patient no. 1, half a syringe of 150 mcg/0.5 mL ganirelix acetate on days 11 and 12): 2 mIU/mL
- Luteinizing hormone (LH) blood level on day 10 ([1]; patient no. 1, half a syringe of 150 mcg/0.5 mL ganirelix acetate on days 11 and 12, FSH 150 Units, clomiphene citrate 50 mg, letrozole 2.5 mg): 4.3 mIU/mL
- Luteinizing hormone (LH) blood level on day 13 ([1]; patient no. 2, half a syringe of 150 mcg/0.5 mL ganirelix acetate on days 11 to 13): 6.3 mIU/mL
- Luteinizing hormone (LH) blood level on day 11 ([1]; patient no. 2, half a syringe of 150 mcg/0.5 mL ganirelix acetate on days 11 to 13, FSH 75/150 Units, clomiphene citrate 50 mg, letrozole 2.5 mg): 12.0 mIU/mL
- Luteinizing hormone (LH) blood level on day 10 ([1]; patients no. 3, 4, 5 respectively, one third a syringe of 150 mcg/0.5 mL ganirelix acetate on days 11 to 13, FSH 75, 150, 225 Units): 12.0 mIU/mL and 18.0 mIU/mL and 14.6 mIU/mL

SMILES: COc1cccc(-c2c(C)n(Cc3c(F)cccc3C(F)(F)F)c(=O)n(C[C@H](NCCCC(=O)O)c3ccccc3)c2=O)c1F [Vaginal elagolix suppository, elagolix]
- Luteinizing hormone (LH) blood level on day 13 [2]: 1.0 mIU/mL
- Luteinizing hormone (LH) blood level on day 11 ([2]; clomiphene citrate 100 mg, letrozole 5 mg): 7.0 mIU/mL
